Read-outs that look alike come from different tables or passages of the source.
Experiments:
[1] = system: isolated rat ileum mucosa
rat ileum mucosa = experiment: Carbachol-evoked Isc in rat ileum mucosa (selectivity test); conditions: carbachol at two concentrations, ascending cumulative, serosal side
PK1 receptor = target: T1, PK1 receptor (Rattus norvegicus, UniProt Q8R416); experiment: Suppression of PK1 evoked increase in Isc in isolated rat ileum mucosa; conditions: test compound 1 µM, 15 min; PK1 10 and 100 nM cumulative
T1 construct: The PK1 evoked increase in Isc requires the presence of endogenous PK1 receptors; from tissue; host or cells: rat ileum mucosa (Ussing-type chambers)
T1 sequence (Q8R416 whole entry): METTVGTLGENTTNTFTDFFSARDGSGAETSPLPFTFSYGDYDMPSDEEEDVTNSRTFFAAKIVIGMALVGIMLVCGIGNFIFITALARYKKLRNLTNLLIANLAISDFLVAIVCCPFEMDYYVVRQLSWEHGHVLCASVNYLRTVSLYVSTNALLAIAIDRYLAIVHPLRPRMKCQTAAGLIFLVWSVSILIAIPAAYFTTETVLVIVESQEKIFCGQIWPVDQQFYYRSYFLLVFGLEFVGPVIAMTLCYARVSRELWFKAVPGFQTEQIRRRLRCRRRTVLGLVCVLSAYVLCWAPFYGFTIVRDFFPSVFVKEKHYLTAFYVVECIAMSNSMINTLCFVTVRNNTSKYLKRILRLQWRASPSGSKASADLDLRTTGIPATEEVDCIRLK
Experimental: Methodology. The basic methodology for Ussing-type ion flux chambers used in these studies was the same as that described in detail above with the following modifications to the experimental protocol. […] The responses to two sequential EFS were used to gauge tissue viability and comparability of the responses of individual tissues from each rat and between rats. Tissue conductance was measured at periodic intervals as changes in the amplitudes of brief short-circuit current responses evoked by application of 1 mV amplitude bi-polar pulses from a pulse generator using Ohm's Law. Three to four tissues from each rat were studied. The tissues from a given animal were grouped and assigned accordingly: one control tissue which received only vehicle followed by two consecutive doses of PK-1 ligand added in a cumulative fashion to the basolateral surface of the tissue; the remaining two to three tissues from the same animal were assigned to be exposed to a given PK-1 receptor antagonist (e.g., 3-4 tissues from 1 rat: Control, Antagonist1, Antagonist2, and/or Antagonist3). Test compound was added to the basolateral tissue side reservoir at a final concentration of 1 µM and allowed a 15 minute incubation period prior to challenge with the PK1 peptide. […]

[2] = target: T2, GPR73 (prokineticin 1 receptor) (Homo sapiens, UniProt Q8TCW9); experiment: PK1 functional assay: Ca2+ mobilization on the FLIPR; type: cell-based; conditions: for IC50: HEK 293 GPR73 cells, read-out: Ca^2+ Mobilization IC50
T2 construct: expressed in transfected cells; host or cells: HEK 293
T2 sequence (Q8TCW9 whole entry, species assumed): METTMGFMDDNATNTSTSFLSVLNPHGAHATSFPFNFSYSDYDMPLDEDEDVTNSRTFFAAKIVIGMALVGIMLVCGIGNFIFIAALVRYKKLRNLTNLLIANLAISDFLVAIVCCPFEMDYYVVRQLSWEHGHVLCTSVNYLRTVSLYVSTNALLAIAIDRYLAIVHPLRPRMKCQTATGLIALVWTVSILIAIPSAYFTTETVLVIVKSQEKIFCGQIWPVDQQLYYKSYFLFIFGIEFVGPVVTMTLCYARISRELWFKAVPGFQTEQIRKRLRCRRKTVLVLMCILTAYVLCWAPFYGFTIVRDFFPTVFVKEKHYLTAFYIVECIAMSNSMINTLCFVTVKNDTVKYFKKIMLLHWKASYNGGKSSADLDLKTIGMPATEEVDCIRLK
Summary of the method: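 HEK293 cells expressing the receptor, loaded with Calcium Plus dye 30 min at 37 °C, then compound preincubated 4 min 15 s before PK1 ligand at its predetermined EC50. FLIPR fluorescence, baseline-subtracted; % inhibition versus max signal, IC50 by curve fitting.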

For `COc1ccc(Cn2c(NCCn3c(N)nc4ccc(C)cc43)nc(=O)n(Cc3ccc(F)cc3)c2=O)cc1` [Cpd 3, 6-[2-(2-Amino-6-methyl-benzoimidazol-1-yl)-ethylamino]-3-(4-fluoro-benzyl)-1-(4-methoxy-benzyl)-1H-[1,3,5]triazine-2,4-dione], the “suppression of Cholera toxin induced increase in Isc (figure legends)” value [1] was “suppresses”, the “suppression of the sustained increase in baseline Isc evoked by Cholera toxin” value [1] was 50-60% and the “effect versus increased baseline Isc evoked by Vibrio cholera toxin” value ([1]; 1 μM) was “no significant effect”. The “suppression of the pro-secretory effect of carbachol” value (rat ileum mucosa) was “failed to suppress”, the “suppression of the PK1 evoked increase in Isc” value (PK1 receptor) was “suppresses” and the “Ca^2+ Mobilization % Inh @10 µM” value ([2]; 10 µM, (further determination)) was 94%. For the same compound, the “Ca^2+ Mobilization % Inh @10 µM” value ([2]; 10 µM) was 96%, the IC50 ([2]; IC50 (further determination)) was 29 nM and the IC50 [2] was 8 nM.
